The values below are quoted from earlier work in PMC10537421, “Co-Dispersion Delivery Systems with Solubilizing Carriers Improving the Solubility and Permeability of Cannabinoids (Cannabidiol, Cannabidiolic Acid, and Cannabichromene) from Cannabis sativa (Henola Variety) Inflorescences” (Pharmaceutics, 2023).

Each structure is given as a SMILES string. Like-named read-outs stand apart in the source and are kept apart here.

For series [1] the following is noted: for bioavailability: oral administration; for bioavailability after inhalation: smoking or vaporizing.
For series [2] the following is noted: for CBD released: SIF and SGF.

What is called pKa is the negative logarithm of the acid dissociation constant. On to `C=C(C)[C@@H]1CCC(C)=C[C@H]1c1c(O)cc(CCCCC)c(C(=O)O)c1O` [CBDA, cannabidiolic acid], for which, where the note is “approximate”, the pKa is on record as about 2.9.

As for `C=C(C)[C@@H]1CCC(C)=C[C@H]1c1c(O)cc(CCCCC)cc1O` [CBD, cannabidiol], the pKa is 9.3–10.3. Besides, in series [1], the “bioavailability after sublingual administration” value is on record as 13–19%, the bioavailability result is “≈ 6%” and the bioavailability after inhalation was 11–45%. Also, the CBD released entry in series [2] (1 h) is reported as “less than 3%”. Also, the CBD released result in series [2] (48 h) is given as “less than 10%”. Moreover, in series [2] (simulated intestinal fluid), the “CBD detected after SIF digestion (bioaccessibility)” value is listed as 29%.

For `CCCCCc1cc(O)c2c(c1)OC(C)(CCC=C(C)C)C=C2` (stereo not drawn) [CBC, cannabichromene], under “approximate”, the pKa is recorded as 9.5–10.3.

`CCCCCc1cc(O)c2c(c1)OC(C)(C)[C@@H]1CCC(C)=C[C@@H]21` [THC, tetrahydrocannabinol]: in series [1], the “bioavailability after sublingual administration” value is listed as 13–14%, the bioavailability was 4–12% and the bioavailability after inhalation was 10% to 35%.
